Columns and labels:
Assay in all cases: SelectScreen kinase specificity survey
Type in all cases: biochemical
Settings in all cases: estimated, abridged dose response curve, read-out: Kinase inhibitory activity EC50
PIM1 = molecular target: T1, PIM1 (Homo sapiens, UniProt P11309)
T1 construct: purchased Invitrogen, Inc. (SelectScreen platform)
Procedure, shortened: (§1)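 In a 230-member panel spanning all kinase classes, phosphorylation of kinase-specific substrates at 100 micromolar ATP was read optically. Estimated EC50s came from abridged five-increment titrations fitted to a Hill equation with four parameters.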

MET M1250T = molecular target: T2, MET M1250T (Homo sapiens, UniProt P08581, M1250T)
T2 construct: purchased Invitrogen (SelectScreen platform)
Procedure, shortened: as §1

FER = molecular target: T3, FER (Homo sapiens, UniProt P16591)
T3 construct: purchased Invitrogen (SelectScreen service)
Procedure, shortened: as §1

SGKL (SGK3) = molecular target: T4, SGKL (SGK3) (Homo sapiens, UniProt Q96BR1)
T4 construct: purchased Invitrogen, Inc. (SelectScreen platform)
Procedure, shortened: as §1

MAPK1 (ERK2) = molecular target: T5, MAPK1 (ERK2) (Homo sapiens, UniProt P28482)
T5 construct: purchased Invitrogen (SelectScreen platform)
Procedure, shortened: as §1

MAP4K5 (KHS1) = molecular target: T6, MAP4K5 (KHS1) (Homo sapiens, UniProt Q9Y4K4)
T6 construct: purchased Invitrogen (SelectScreen platform)
Procedure, shortened: as §1

ABL1 T315I = molecular target: T7, ABL1 T315I (Homo sapiens, UniProt P00519, T315I)
T7 construct: purchased Invitrogen (SelectScreen platform)
Procedure, shortened: as §1

MAPK9 (JNK2) = molecular target: T8, MAPK9 (JNK2) (Homo sapiens, UniProt P45984)
T8 construct: purchased Invitrogen, Inc. (SelectScreen service)
Procedure, shortened: as §1

INSRR (IRR) = molecular target: T9, INSRR (IRR) (Homo sapiens, UniProt P14616)
T9 construct: purchased Invitrogen (SelectScreen platform)
Procedure, shortened: as §1

PKN1 (PRK1) = molecular target: T10, PKN1 (PRK1) (Homo sapiens, UniProt Q16512)
T10 construct: purchased Invitrogen, Inc. (SelectScreen platform)
Procedure, shortened: as §1

PRKCZ (PKC zeta) = molecular target: T11, PRKCZ (PKC zeta) (Homo sapiens, UniProt Q05513)
T11 construct: purchased Invitrogen, Inc. (SelectScreen platform)
Procedure, shortened: as §1

AURKB (Aurora B) = molecular target: T12, AURKB (Aurora B) (Homo sapiens, UniProt Q96GD4)
T12 construct: purchased Invitrogen, Inc. (SelectScreen service)
Procedure, shortened: as §1

MINK1 (ZC3) = molecular target: T13, MINK1 (ZC3) (Homo sapiens, UniProt Q8N4C8)
T13 construct: purchased Invitrogen (SelectScreen platform)
Procedure, shortened: as §1

HIPK4 = molecular target: T14, HIPK4 (Homo sapiens, UniProt Q8NE63)
T14 construct: purchased Invitrogen (SelectScreen platform)
Procedure, shortened: as §1

MST1R (RON) = molecular target: T15, MST1R (RON) (Homo sapiens, UniProt Q04912)
T15 construct: purchased Invitrogen (SelectScreen platform)
Procedure, shortened: as §1

CDC42 BPA (MRCKA) = molecular target: T16, CDC42 BPA (MRCKA) (Homo sapiens, UniProt Q5VT25)
T16 construct: purchased Invitrogen (SelectScreen platform)
Procedure, shortened: as §1

T14 sequence (Q8NE63 whole entry): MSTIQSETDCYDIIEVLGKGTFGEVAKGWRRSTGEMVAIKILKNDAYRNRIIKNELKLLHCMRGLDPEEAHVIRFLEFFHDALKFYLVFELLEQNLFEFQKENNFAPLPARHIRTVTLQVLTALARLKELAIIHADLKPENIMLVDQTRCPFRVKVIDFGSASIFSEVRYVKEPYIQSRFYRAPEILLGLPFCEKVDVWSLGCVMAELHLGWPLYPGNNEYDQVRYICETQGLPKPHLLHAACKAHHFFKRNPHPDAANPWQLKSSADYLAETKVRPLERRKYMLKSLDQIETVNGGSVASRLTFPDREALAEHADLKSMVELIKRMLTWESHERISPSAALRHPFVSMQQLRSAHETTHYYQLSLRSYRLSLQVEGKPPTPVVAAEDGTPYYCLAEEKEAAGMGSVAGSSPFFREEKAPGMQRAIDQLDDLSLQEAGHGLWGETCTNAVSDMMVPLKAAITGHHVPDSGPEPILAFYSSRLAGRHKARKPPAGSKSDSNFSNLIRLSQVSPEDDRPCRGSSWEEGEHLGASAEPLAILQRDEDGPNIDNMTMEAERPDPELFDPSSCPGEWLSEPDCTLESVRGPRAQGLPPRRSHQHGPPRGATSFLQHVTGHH
T2 sequence (P08581 25-1390 M1250T): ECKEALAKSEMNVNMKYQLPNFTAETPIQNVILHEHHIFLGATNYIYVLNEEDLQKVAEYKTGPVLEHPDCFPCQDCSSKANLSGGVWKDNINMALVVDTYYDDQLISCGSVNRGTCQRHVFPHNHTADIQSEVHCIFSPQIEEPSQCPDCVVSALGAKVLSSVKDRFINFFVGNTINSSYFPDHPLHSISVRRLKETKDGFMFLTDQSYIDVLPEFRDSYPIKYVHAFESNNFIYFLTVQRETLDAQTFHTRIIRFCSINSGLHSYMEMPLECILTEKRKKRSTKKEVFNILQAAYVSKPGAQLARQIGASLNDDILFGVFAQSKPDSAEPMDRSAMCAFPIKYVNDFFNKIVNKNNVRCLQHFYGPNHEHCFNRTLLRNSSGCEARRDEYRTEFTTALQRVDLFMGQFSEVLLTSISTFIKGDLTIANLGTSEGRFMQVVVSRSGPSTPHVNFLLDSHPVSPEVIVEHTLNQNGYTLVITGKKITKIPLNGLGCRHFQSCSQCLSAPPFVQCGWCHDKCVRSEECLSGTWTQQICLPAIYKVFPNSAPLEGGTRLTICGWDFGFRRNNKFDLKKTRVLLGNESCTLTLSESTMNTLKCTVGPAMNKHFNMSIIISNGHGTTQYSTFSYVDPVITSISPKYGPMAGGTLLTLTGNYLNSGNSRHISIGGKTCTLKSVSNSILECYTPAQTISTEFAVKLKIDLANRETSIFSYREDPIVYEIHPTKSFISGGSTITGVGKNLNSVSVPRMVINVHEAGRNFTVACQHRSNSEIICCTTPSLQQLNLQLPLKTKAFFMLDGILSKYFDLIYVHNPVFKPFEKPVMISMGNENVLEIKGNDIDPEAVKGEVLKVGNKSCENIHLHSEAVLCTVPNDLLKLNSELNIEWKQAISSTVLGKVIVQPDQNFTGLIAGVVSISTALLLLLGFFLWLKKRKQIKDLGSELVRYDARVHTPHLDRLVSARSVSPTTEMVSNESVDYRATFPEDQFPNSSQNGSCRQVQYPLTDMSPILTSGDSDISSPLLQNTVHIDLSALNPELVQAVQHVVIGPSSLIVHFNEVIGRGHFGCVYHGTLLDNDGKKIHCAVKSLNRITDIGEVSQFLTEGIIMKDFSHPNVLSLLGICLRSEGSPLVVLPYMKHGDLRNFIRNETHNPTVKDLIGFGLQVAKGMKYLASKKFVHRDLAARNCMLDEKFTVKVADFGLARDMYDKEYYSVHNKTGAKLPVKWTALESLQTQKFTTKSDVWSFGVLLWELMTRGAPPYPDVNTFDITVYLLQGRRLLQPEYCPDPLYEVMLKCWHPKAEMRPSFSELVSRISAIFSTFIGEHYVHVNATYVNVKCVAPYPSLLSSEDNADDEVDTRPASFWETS
T16 sequence (Q5VT25 whole entry): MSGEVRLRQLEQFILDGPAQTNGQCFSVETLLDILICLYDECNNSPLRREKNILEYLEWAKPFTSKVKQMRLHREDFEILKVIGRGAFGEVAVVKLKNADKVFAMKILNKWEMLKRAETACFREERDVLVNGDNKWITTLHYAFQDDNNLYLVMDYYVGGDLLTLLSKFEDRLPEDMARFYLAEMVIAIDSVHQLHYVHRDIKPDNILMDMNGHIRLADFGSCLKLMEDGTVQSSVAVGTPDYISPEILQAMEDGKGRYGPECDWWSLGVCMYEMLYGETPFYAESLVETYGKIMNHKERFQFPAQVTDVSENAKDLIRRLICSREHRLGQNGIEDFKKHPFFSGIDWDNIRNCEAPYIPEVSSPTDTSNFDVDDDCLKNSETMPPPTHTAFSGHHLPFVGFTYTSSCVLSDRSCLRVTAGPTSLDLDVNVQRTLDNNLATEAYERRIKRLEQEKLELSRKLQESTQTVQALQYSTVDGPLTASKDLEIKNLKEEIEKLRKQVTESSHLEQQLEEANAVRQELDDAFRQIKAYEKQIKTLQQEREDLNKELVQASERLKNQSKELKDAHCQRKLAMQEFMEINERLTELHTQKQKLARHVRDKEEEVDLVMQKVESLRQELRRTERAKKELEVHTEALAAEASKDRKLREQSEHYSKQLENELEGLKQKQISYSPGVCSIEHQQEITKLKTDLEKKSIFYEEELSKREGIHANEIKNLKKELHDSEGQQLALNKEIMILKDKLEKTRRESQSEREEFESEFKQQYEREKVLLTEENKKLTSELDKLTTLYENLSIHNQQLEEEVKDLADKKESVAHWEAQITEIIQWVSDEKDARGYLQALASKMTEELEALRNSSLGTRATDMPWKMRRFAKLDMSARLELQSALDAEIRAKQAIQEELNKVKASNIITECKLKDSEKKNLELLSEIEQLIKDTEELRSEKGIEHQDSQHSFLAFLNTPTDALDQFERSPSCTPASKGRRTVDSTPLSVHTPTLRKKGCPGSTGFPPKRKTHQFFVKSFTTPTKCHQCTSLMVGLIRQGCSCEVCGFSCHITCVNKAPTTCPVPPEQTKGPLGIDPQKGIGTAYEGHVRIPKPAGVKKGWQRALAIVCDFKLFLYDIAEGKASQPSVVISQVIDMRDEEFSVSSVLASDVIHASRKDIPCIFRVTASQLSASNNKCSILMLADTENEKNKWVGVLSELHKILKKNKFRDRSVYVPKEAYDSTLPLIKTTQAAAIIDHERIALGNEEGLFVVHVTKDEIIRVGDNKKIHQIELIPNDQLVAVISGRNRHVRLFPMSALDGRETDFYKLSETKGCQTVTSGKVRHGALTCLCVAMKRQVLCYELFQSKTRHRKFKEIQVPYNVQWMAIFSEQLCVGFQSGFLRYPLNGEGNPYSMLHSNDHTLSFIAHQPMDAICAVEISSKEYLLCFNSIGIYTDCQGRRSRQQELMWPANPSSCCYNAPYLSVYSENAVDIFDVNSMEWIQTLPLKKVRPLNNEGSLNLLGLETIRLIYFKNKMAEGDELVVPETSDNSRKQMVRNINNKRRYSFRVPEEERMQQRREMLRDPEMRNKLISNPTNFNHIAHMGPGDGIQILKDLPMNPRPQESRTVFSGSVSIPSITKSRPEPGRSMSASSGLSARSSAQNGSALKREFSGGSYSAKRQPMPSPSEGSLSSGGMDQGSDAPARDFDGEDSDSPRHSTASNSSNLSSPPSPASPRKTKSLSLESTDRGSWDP
T4 sequence (Q96BR1 whole entry): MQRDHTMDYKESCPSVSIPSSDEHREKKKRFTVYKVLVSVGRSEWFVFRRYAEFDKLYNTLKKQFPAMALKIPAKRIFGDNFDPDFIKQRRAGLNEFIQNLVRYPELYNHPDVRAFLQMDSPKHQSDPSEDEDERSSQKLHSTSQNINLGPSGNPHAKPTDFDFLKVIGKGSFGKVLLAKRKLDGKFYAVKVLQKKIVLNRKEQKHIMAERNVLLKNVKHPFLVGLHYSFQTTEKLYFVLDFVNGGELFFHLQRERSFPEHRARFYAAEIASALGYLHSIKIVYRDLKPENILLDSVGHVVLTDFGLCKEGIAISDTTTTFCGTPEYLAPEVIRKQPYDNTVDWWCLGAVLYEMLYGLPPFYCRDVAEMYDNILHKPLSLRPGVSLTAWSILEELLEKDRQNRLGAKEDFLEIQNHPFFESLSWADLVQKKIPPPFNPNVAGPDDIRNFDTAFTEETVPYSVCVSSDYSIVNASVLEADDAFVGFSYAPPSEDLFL
T5 sequence (P28482 whole entry): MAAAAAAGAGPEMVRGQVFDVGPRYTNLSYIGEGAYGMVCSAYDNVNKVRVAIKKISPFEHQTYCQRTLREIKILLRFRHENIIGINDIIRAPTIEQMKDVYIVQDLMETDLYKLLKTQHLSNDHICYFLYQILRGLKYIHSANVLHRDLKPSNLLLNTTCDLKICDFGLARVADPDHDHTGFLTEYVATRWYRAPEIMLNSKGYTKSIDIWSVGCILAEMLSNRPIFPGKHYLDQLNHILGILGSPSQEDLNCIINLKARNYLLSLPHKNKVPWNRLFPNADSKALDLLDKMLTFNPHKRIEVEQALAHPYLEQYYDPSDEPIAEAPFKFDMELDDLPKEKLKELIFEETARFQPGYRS
T1 sequence (P11309 whole entry): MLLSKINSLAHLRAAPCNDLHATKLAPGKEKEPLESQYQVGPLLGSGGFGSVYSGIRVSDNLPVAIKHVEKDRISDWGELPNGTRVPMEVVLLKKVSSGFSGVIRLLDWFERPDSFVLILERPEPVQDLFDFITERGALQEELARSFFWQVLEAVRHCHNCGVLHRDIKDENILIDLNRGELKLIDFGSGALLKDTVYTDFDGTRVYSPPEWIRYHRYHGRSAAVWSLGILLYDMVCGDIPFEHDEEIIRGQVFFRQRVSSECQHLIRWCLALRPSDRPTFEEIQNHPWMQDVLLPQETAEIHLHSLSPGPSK

With CN(C)CCCNc1ccc2ncn3c4ccc5[nH]ncc5c4c(=O)c1c23 [Compound (IV)] the EC50 (PIM1) was 3.42 µM, the EC50 (MET M1250T) was over 5 µM and the EC50 (FER) was over 5 µM. For the same compound, the EC50 (SGKL (SGK3)) was over 5 µM, the EC50 (MAPK1 (ERK2)) was over 5 µM and the EC50 (MAP4K5 (KHS1)) was over 5 µM. The EC50 (ABL1 T315I) was over 5 µM, the EC50 (MAPK9 (JNK2)) was over 5 µM and the EC50 (INSRR (IRR)) was 1.15 µM. It also gave an EC50 (PKN1 (PRK1)) of 1.39 µM, an EC50 (PRKCZ (PKC zeta)) of over 5 µM and an EC50 (AURKB (Aurora B)) of over 5 µM. It also gave an EC50 (MINK1 (ZC3)) of 1.36 µM, an EC50 (HIPK4) of 1.31 µM and an EC50 (MST1R (RON)) of over 5 µM. For the same compound, the EC50 (CDC42 BPA (MRCKA)) was over 5 µM.
Compound CCN(CC)CCNc1ccc2ncn3c4ccc(O)cc4c(=O)c1c23 [Symadex, 5-(2-(diethylamino)ethylamino)-8-hydroxy-6H-imidazo[4,5,1-de]acridin-6-one, reference compound] has an EC50 (PIM1) of 0.959 µM, an EC50 (MET M1250T) of over 5 µM and an EC50 (FER) of over 5 µM. The EC50 (SGKL (SGK3)) was over 5 µM, the EC50 (MAPK1 (ERK2)) was over 5 µM and the EC50 (MAP4K5 (KHS1)) was 2.43 µM. It also gave an EC50 (ABL1 T315I) of over 5 µM, an EC50 (MAPK9 (JNK2)) of over 5 µM and an EC50 (INSRR (IRR)) of over 5 µM. For the same compound, the EC50 (PKN1 (PRK1)) was 4.75 µM, the EC50 (PRKCZ (PKC zeta)) was over 5 µM and the EC50 (AURKB (Aurora B)) was over 5 µM. For the same compound, the EC50 (MINK1 (ZC3)) was 1.09 µM, the EC50 (HIPK4) was 1.82 µM and the EC50 (MST1R (RON)) was over 5 µM. The EC50 (CDC42 BPA (MRCKA)) was over 5 µM.

Source: patent US20100292231A1, “Indazole Compounds for Treating Inflammatory Disorders, Demyelinating Disorders and Cancers” (priority 2007, published 2010)
